Entries after “also recorded” stand apart in the source; their conditions may differ. Blank lines part the entries; values can stand above or below the molecule they belong to.
Legend:
PIN2 localization = PIN2 localization in root cells of PIN2::PIN2:GFP seedlings; settings: for induction of PIN2 agglomerations / PIN2 localization: 40 μM, 2 hours
EXO70A1 = biological target: T1, EXO70A1 (Arabidopsis thaliana, UniProt Q9LZD3); format: binding; settings: in comparison to Bio-680 matrix and biotin controls
T1 construct: protein extracts from 16 days old seedlings grown from normal 0.5×MS agar media; from tissue; host or cells: Arabidopsis seedlings (16 days old), 16,000×g supernatant
T1 sequence (Q9LZD3 1-638): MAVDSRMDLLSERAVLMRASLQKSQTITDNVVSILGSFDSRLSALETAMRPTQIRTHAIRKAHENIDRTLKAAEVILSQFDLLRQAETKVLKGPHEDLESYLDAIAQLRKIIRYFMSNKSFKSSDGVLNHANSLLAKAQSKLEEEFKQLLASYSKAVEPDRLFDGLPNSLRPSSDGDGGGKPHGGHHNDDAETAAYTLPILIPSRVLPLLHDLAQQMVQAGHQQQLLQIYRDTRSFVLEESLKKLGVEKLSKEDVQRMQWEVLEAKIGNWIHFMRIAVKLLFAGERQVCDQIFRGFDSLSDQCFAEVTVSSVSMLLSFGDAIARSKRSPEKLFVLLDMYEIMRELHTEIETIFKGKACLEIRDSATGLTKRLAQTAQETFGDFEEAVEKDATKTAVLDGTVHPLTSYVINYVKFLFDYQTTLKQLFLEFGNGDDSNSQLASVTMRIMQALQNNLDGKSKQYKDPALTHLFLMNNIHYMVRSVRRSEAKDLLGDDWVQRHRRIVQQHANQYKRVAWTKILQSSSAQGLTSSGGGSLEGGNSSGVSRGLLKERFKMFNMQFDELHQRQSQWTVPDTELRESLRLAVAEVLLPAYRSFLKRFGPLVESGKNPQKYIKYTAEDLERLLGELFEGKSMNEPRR

[1] = biological target: T2, EXO70A1 (amino acid residues 75-638) (Arabidopsis thaliana, UniProt Q9LZD3); assay: STD-NMR of ES2 / analog8 with purified EXO70A1; format: binding; settings: EXO70A1, non-linear fit, read-out: Kd (mean ± SE)
T2 sequence (Q9LZD3 75-638): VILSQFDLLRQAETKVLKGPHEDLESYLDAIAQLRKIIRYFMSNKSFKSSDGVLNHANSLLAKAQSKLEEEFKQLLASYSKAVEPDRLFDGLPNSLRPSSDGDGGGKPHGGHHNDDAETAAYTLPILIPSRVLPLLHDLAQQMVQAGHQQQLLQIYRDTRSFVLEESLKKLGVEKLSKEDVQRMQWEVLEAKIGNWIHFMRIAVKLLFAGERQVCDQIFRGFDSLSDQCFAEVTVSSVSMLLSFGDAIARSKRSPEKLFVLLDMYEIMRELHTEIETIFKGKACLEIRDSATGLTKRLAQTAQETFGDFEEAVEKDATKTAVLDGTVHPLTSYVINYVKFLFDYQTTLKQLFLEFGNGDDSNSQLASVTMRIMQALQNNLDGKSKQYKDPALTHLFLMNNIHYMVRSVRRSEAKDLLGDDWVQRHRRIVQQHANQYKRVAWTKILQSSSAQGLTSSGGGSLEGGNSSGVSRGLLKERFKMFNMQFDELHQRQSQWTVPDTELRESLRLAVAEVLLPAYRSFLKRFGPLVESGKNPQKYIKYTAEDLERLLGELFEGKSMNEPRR

[2] = Stability of ES2 in water by 1H NMR; format: physicochemical; settings: 1H NMR over one week
Method: The ES2 molecule contains an N-acyl hydrazone group at its core, and could have the propensity for hydrolysis to 3-fluorobenzohydrazide and 4-hydroxy-3-iodo-5-methoxybenzaldehyde in aqueous solution (FIG. 10A). […] In addition, the activity of the two possible ES2 hydrolysis products in inducing PIN2 localization in late endosomal compartments was tested.

SMILES: COc1cc(/C=N/NC(=O)c2ccc(N)cc2)ccc1O [Ana-680, 4-Amino-N′-[(E)-(4-hydroxy-3-methoxyphenyl)methylidene]benzohydrazide]
induction of PIN2 agglomerations / PIN2 localization (PIN2 localization): did not

SMILES: COc1cc(/C=N/NC(=O)c2ccc(N)c(F)c2)cc(I)c1O [Ana-688, 4-Amino-3-fluoro-N′-[(E)-(4-hydroxy-3-iodo-5-methoxyphenyl)methylidene]benzohydrazide]
induction of PIN2 agglomerations / PIN2 localization (PIN2 localization): induced PIN2 agglomerations

SMILES: COc1cc(/C=N/NC(=O)c2ccc(NC(=O)CCCC[C@@H]3SC[C@@H]4NC(=O)N[C@@H]43)cc2)ccc1O [Bio-680, N-(4-((E)-2-(4-hydroxy-3-methoxybenzylidene)hydrazinecarbonyl)phenyl)-5-((3aS,4S,6aR)-2-oxohexahydro-1H-thieno[3,4-d]imidazol-4-yl)pentanamide]
induction of PIN2 agglomerations / PIN2 localization (PIN2 localization): inactive; also recorded: did not

SMILES: COc1cc(/C=N/NC(=O)c2ccc(NC(=O)CCCC[C@@H]3SC[C@@H]4NC(=O)N[C@@H]43)c(F)c2)cc(I)c1O [Bio-688, N-(2-fluoro-4-((E)-2-(4-hydroxy-3-iodo-5-methoxybenzylidene)hydrazinecarbonyl)phenyl)-5-((3aS,4S,6aR)-2-oxohexahydro-1H-thieno[3,4-d]imidazol-4-yl)pentanamide]
pull down of EXO70A1 (western blot band intensity) (EXO70A1): more potent in pulling down EXO70A1
induction of PIN2 agglomerations / PIN2 localization (PIN2 localization): active; also recorded: induced PIN2 agglomerations

Kd [1]: 400 ± 170 µM
stability in water solution (hydrolysis) [2]: no hydrolysis products were observed
SMILES: COc1cc(/C=N/NC(=O)c2cccc(F)c2)cc(I)c1O [ES2]
maximum feret diameter of PIN2-localized compartments (PIN2 localization; 40 μM ES2, 2 hours, light): 2.9 μm
minimal feret diameter of PIN2-localized compartments (PIN2 localization; 40 μM ES2, 2 hours, light): 0.4 μm
feret diameter of PIN2-localized compartments (mean±SD) (PIN2 localization; 40 μM ES2, 2 hours, light, N=391): 1.18±0.47 μm

From patent publication US20180362449A1, “THE EXOCYST AS A NOVEL DRUG TARGET OF ENDOSIDIN2 AND APPLICATION AS A THERAPEUTIC” (The Regents of the University of California, priority 2015, published 2018)
